This passage reports IC50 results from ChEMBL document CHEMBL5236615, “Discovery of Novel N-Heterocyclic-Fused Deoxypodophyllotoxin Analogues as Tubulin Polymerization Inhibitors Targeting the Colchicine-Binding Site for Cancer Treatment” (J Med Chem, 2022).

Each structure is given as a SMILES string. pIC50: −log10 of the molar value. Some results are limits rather than exact numbers.

One test concerns HT-29. Nature of the test: Antiproliferative activity against human HT-29 cells measured after 72 hrs by MTT assay. Format: functional, cell-based. To be noted: HT-29, 72 h.
The test system of another test is HCT-116. The experiment in a line: Antiproliferative activity against human HCT-116 cells measured after 72 hrs by MTT assay. To be noted: HCT-116, 72 h. It counts as functional, cell-based. On the technique in general: Tetrazolium assays rely on reduction of a dye to a coloured formazan, in cell work by metabolically active cells.
In a further test the test system is K562. The experiment in a line: cells. To be noted: Homo sapiens, K562, 72 h.
The next test deals with MCF7. Nature of the test: cells. The following applies: Homo sapiens, MCF7, 72 h.

Description for K562: Antiproliferative activity against human K562 cells measured after 72 hrs by MTT assay
Description for MCF7: Antiproliferative activity against human MCF7 cells measured after 72 hrs by MTT assay

By pIC50 is commonly meant −log10 of the IC50, conventionally taken in molar units. `CCCN1CC(=O)N2[C@H](c3cc(OC)c(OC)c(OC)c3)c3cc4c(cc3C[C@H]2C1=O)OCCO4`: the pIC50 with HT-29, in the test with HCT-116, with K562 and in the test with MCF7 was under 5.30 each time.
For `COc1cc([C@@H]2c3cc4c(cc3C[C@H]3C(=O)NC(=O)N23)OCCO4)cc2c1OCO2`, the pIC50 in the test with HT-29 was 7.13; in the test with HCT-116, 7.33; in the test on K562, 7.04; in the test with MCF7, 7.44.
Turning to `CCN1C(=O)[C@@H]2Cc3cc4c(cc3[C@@H](c3cc(OC)c(OC)c(OC)c3)N2C1=O)OCCO4`, the pIC50 with HT-29, in the test with HCT-116, in the test with K562 and in the test on MCF7 was under 5.30 throughout.
As to `COc1cc([C@@H]2c3cc4c(cc3C[C@H]3C(=O)NC(=O)N23)OCO4)cc(OC)c1OC`, the pIC50 is 7.31 with HT-29, 7.19 in the test on HCT-116, 7.35 in the test on K562 and 6.90 in the test with MCF7.
For `COc1cc2c(cc1OC)[C@@H](c1cc(OC)c(OC)c(OC)c1)N1C(=O)OC[C@@H]1C2` the same measures were under 5.30, under 5.30, under 5.30 and under 5.30.
For `COc1cc([C@@H]2c3cc4c(cc3C[C@H]3C(=O)NCC(=O)N23)OCO4)cc(OC)c1OC` the same measures were 5.72, 5.91, 6.10 and 5.63.
On the same counts, the results for `COc1cc([C@@H]2c3cc4c(cc3C[C@H]3C(=O)NC(=O)N23)OCCO4)cc([N+](=O)[O-])c1OC` are 7.30, 7.50, 7.27 and 7.39.
Consider `CCCN1CC(=O)N2[C@H](c3cc(OC)c(OC)c(OC)c3)c3cc4c(cc3C[C@H]2C1=O)OCO4`, for which the pIC50 in the test with HT-29, in the test with HCT-116, in the test with K562 and in the test with MCF7 was under 5.30 throughout.
`CCN1C(=O)[C@@H]2Cc3cc4c(cc3[C@@H](c3cc(OC)c(OC)c(OC)c3)N2C1=S)OCCO4`: the negative-log IC50 (pIC50) with HT-29, with HCT-116, in the test with K562 and with MCF7 was under 5.30 throughout.
Take `COc1ccc([C@@H]2c3cc4c(cc3C[C@H]3COC(=O)N32)OCO4)cc1OC`: the negative logarithm of the IC50 (pIC50) was 6.12 with HT-29, under 5.30 in the test on HCT-116, 6.23 in the test with K562 and under 5.30 in the test with MCF7.
As to `COc1c(Br)cc([C@H]2c3cc4c(cc3C[C@H]3C(=O)NC(=O)N23)OCCO4)cc1Br`, the negative logarithm of the IC50 (pIC50) with HT-29, in the test on HCT-116, in the test on K562 and in the test on MCF7 was under 5.30 in each case.
Regarding `COc1cc([C@@H]2c3cc4c(cc3C[C@H]3COC(=O)N32)OCO4)cc(OC)c1OC`, the pIC50 in the test on HT-29 is 7.57; with HCT-116, 7.78; in the test with K562, 7.70; in the test with MCF7, 7.47.
On the same counts, the results for `COc1cc([C@@H]2c3cc4c(cc3C[C@H]3C(=O)NC(=O)N23)OCCO4)cc(F)c1OC` are 7.58, 7.70, 7.53 and 7.66.
Turning to `O=C1OC[C@@H]2Cc3cc4c(cc3[C@@H](c3cc(C(F)(F)F)cc(C(F)(F)F)c3)N12)OCCO4`, the negative logarithm of the IC50 (pIC50) in the test with HT-29 is 7.25; in the test with HCT-116 it was 6.51; in the test with K562, 6.70; in the test with MCF7, 7.00.
On the same counts, the results for `COc1cc([C@@H]2c3cc4c(cc3C[C@H]3C(=O)N(C)C(=S)N23)OCCO4)cc(OC)c1OC` are under 5.30, under 5.30, under 5.30 and under 5.30.
